Reference: patent US20250120989A1, “BRIDGED TRICYCLIC CARBAMOYLPYRIDONE COMPOUNDS AND USES THEREOF” (priority 2023, published 2025)
In brackets after ≈: the same amount, converted by molar mass.

What was measured:
physchem = settings: FaSSIF, 23 °C, thermodynamic from solid
in vitro = settings: human, uninfected MT-4 cells
HIV-1 (IIIB) = assay: microbe, parasite or virus in culture; type: cell-based; settings: Human immunodeficiency virus 1, MT4, 120 h; HIV-1 (IIIB) replication in MT-4 cells, 5 days, Cell Titer Glo; read-out: MT4 EC50

| Structure (SMILES) | solubility thermodynamic at 24 h (physchem) | CC50 at 5 days (in vitro) | EC50 (HIV-1 (IIIB)) |
| --- | --- | --- | --- |
| COC1=NO[C@@]2(CC[C@H](C)N3C[C@H]2n2cc(C(=O)NCc4ccc(F)cc4F)c(=O)c(OCOC(=O)O[C@@H](C)[C@@H](C)OP(=O)(O)O)c2C3=O)C1 [Compound 59, (((3′S,5S,7′R)-10′-((2,4-difluorobenzyl)carbamoyl)-3-methoxy-3′-methyl-1′,11′-dioxo-1′,4′,5′,11′-tetrahydro-3′H,4H,7′H-spiro[isoxazole-5,6′-[2,7]methanopyrido[1,2-a][1,4]diazonin]-12′-yl)oxy)methyl ((2S,3R)-3-(phosphonooxy)butan-2-yl) carbonate] | 5240 µg/mL (≈ 7.19 mM) | 18.8 µM | 0.00204 µM |
| COC1=NO[C@@]2(CC[C@H](C)N3C[C@H]2n2cc(C(=O)NCc4ccc(F)cc4F)c(=O)c(OCOC(=O)O[C@H](C)[C@H](C)OP(=O)(O)O)c2C3=O)C1 [Compound 60, (((3′S,5S,7′R)-10′-((2,4-difluorobenzyl)carbamoyl)-3-methoxy-3′-methyl-1′,11′-dioxo-1′,4′,5′,11′-tetrahydro-3′H,4H,7′H-spiro[isoxazole-5,6′-[2,7]methanopyrido[1,2-a][1,4]diazonin]-12′-yl)oxy)methyl ((2R,3S)-3-(phosphonooxy)butan-2-yl) carbonate] | 4520 µg/mL (≈ 6.2 mM) | 23.8 µM | 0.0019 µM |
| COC1=NO[C@@]2(CC[C@H](C)N3C[C@H]2n2cc(C(=O)NCc4ccc(F)cc4F)c(=O)c(OCOC(=O)O[C@H](C)[C@@H](C)OP(=O)(O)O)c2C3=O)C1 [Compound 61, (((3′S,5S,7′R)-10′-((2,4-difluorobenzyl)carbamoyl)-3-methoxy-3′-methyl-1′,11′-dioxo-1′,4′,5′,11′-tetrahydro-3′H,4H,7′H-spiro[isoxazole-5,6′-[2,7]methanopyrido[1,2-a][1,4]diazonin]-12′-yl)oxy)methyl ((2R,3R)-3-(phosphonooxy)butan-2-yl) carbonate] | 4800 µg/mL (≈ 6.58 mM) | 20.9 µM | 0.00235 µM |
| CC1=NO[C@@]2(CC[C@H](C)N3C[C@H]2n2cc(C(=O)NCc4ccc(F)cc4F)c(=O)c(OCOC(=O)OC(C)(C)COP(=O)(O)O)c2C3=O)C1 [Compound 62, (((3′S,5S,7′R)-10′-((2,4-difluorobenzyl)carbamoyl)-3,3′-dimethyl-1′,11′-dioxo-1′,4′,5′,11′-tetrahydro-3′H,4H,7′H-spiro[isoxazole-5,6′-[2,7]methanopyrido[1,2-a][1,4]diazonin]-12′-yl)oxy)methyl (2-methyl-1-(phosphonooxy)propan-2-yl) carbonate] | 5040 µg/mL (≈ 7.08 mM) | 28.1 µM | 0.00258 µM |
| COC1=NO[C@@]2(CC[C@H](C)N3C[C@H]2n2cc(C(=O)NCc4ccc(F)cc4F)c(=O)c(OCOC(=O)OC(C)(C)COP(=O)(O)O)c2C3=O)C1 [Compound 63, (((3′S,5S,7′R)-10′-((2,4-difluorobenzyl)carbamoyl)-3-methoxy-3′-methyl-1′,11′-dioxo-1′,4′,5′,11′-tetrahydro-3′H,4H,7′H-spiro[isoxazole-5,6′-[2,7]methanopyrido[1,2-a][1,4]diazonin]-12′-yl)oxy)methyl (2-methyl-1-(phosphonooxy)propan-2-yl) carbonate] | 4620 µg/mL (≈ 6.35 mM) | 35.4 µM | 0.00512 µM |
| CC[C@H](COC(=O)OCOc1c2n(cc(C(=O)NCc3ccc(F)cc3F)c1=O)[C@@H]1CN(C2=O)[C@@H](C)CC[C@]12CC(C)=NO2)OP(=O)(O)O [Compound 64, (((3′S,5S,7′R)-10′-((2,4-difluorobenzyl)carbamoyl)-3,3′-dimethyl-1′,11′-dioxo-1′,4′,5′,11′-tetrahydro-3′H,4H,7′H-spiro[isoxazole-5,6′-[2,7]methanopyrido[1,2-a][1,4]diazonin]-12′-yl)oxy)methyl ((R)-2-(phosphonooxy)butyl) carbonate] | 4840 µg/mL (≈ 6.8 mM) | 13.6 µM | 0.00124 µM |
| CC[C@H](COC(=O)OCOc1c2n(cc(C(=O)NCc3ccc(F)cc3F)c1=O)[C@@H]1CN(C2=O)[C@@H](C)CC[C@]12CC(OC)=NO2)OP(=O)(O)O [Compound 65, (((3′S,5S,7′R)-10′-((2,4-difluorobenzyl)carbamoyl)-3-methoxy-3′-methyl-1′,11′-dioxo-1′,4′,5′,11′-tetrahydro-3′H,4H,7′H-spiro[isoxazole-5,6′-[2,7]methanopyrido[1,2-a][1,4]diazonin]-12′-yl)oxy)methyl ((R)-2-(phosphonooxy)butyl) carbonate] | 3880 µg/mL (≈ 5.33 mM) | 14.1 µM | 0.00102 µM |
| CC[C@@H](COC(=O)OCOc1c2n(cc(C(=O)NCc3ccc(F)cc3F)c1=O)[C@@H]1CN(C2=O)[C@@H](C)CC[C@]12CC(C)=NO2)OP(=O)(O)O [Compound 66, (((3′S,5S,7′R)-10′-((2,4-difluorobenzyl)carbamoyl)-3,3′-dimethyl-1′,11′-dioxo-1′,4′,5′,11′-tetrahydro-3′H,4H,7′H-spiro[isoxazole-5,6′-[2,7]methanopyrido[1,2-a][1,4]diazonin]-12′-yl)oxy)methyl ((S)-2-(phosphonooxy)butyl) carbonate] | 4270 µg/mL (≈ 5.99 mM) | 12.8 µM | 0.00207 µM |
| CC[C@@H](COC(=O)OCOc1c2n(cc(C(=O)NCc3ccc(F)cc3F)c1=O)[C@@H]1CN(C2=O)[C@@H](C)CC[C@]12CC(OC)=NO2)OP(=O)(O)O [Compound 67, (((3′S,5S,7′R)-10′-((2,4-difluorobenzyl)carbamoyl)-3-methoxy-3′-methyl-1′,11′-dioxo-1′,4′,5′,11′-tetrahydro-3′H,4H,7′H-spiro[isoxazole-5,6′-[2,7]methanopyrido[1,2-a][1,4]diazonin]-12′-yl)oxy)methyl ((S)-2-(phosphonooxy)butyl) carbonate] | 5180 µg/mL (≈ 7.12 mM) | 14.4 µM | 0.00241 µM |
| COC1=NO[C@@]2(CC[C@H](C)N3C[C@H]2n2cc(C(=O)NCc4ccc(F)cc4F)c(=O)c(OCOC(=O)OC[C@H](C)COP(=O)(O)O)c2C3=O)C1 [Compound 68, (((3′S,5S,7′R)-10′-((2,4-difluorobenzyl)carbamoyl)-3-methoxy-3′-methyl-1′,11′-dioxo-1′,4′,5′,11′-tetrahydro-3′H,4H,7′H-spiro[isoxazole-5,6′-[2,7]methanopyrido[1,2-a][1,4]diazonin]-12′-yl)oxy)methyl ((S)-2-methyl-3-(phosphonooxy)propyl) carbonate] | 4620 µg/mL (≈ 6.35 mM) | 16.1 µM | 0.00211 µM |
| CC1=NO[C@@]2(CC[C@H](C)N3C[C@H]2n2cc(C(=O)NCc4ccc(F)cc4F)c(=O)c(OCOC(=O)OC[C@H](C)COP(=O)(O)O)c2C3=O)C1 [Compound 69, (((3′S,5S,7′R)-10′-((2,4-difluorobenzyl)carbamoyl)-3,3′-dimethyl-1′,11′-dioxo-1′,4′,5′,11′-tetrahydro-3′H,4H,7′H-spiro[isoxazole-5,6′-[2,7]methanopyrido[1,2-a][1,4]diazonin]-12′-yl)oxy)methyl ((S)-2-methyl-3-(phosphonooxy)propyl) carbonate] | 4600 µg/mL (≈ 6.46 mM) | 17.3 µM | 0.0029 µM |
